Data published in patent publication US12398154B2, “Azaquinazoline pan-KRas inhibitors” (Mirati Therapeutics, Inc., priority 2020, dated 2025).

How the values were obtained:
KRas G12C = KRas G12C (Homo sapiens, UniProt P01116, G12C); test: biochemical;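 note: binding to KRas assessed by TR-FRET displacement after one hour incubation at room temperature, potency fitted from percent-of-control values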
Procedure: (§1) The ability of a compound to bind to KRas was measured using a TR-FRET displacement assay. […] After a 60-minute incubation at room temperature, the reaction was measured using a BMG LABTECH CLARIO star Plus via TR-FRET. […] The POC values were fit to a 4-parameter IC50 equation and the IC50 value reported.

KRas G12S = KRas G12S (Homo sapiens, UniProt P01116, G12S); test: biochemical;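 note: TR-FRET displacement binding to KRas, read after one hour incubation at room temperature, IC50 from four-parameter fit of percent of control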
Procedure: as §1

KRas G12D = KRas G12D (Homo sapiens, UniProt P01116, G12D); test: biochemical;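 note: TR-FRET displacement binding assay on KRas, read after a one-hour incubation at room temperature, IC50 fitted from percent-of-control values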
Procedure: as §1

KRas G13D = molecular target: T1, KRas G13D (Homo sapiens, UniProt P01116, G13D); test: KRas binding assay (TR-FRET displacement);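 note: One-hour room temperature incubation before TR-FRET reading, IC50 from a four-parameter curve fit to percent-of-control data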
T1 construct: Biotinylated KRas (corresponding to amino acids 1-169, produced at Accelegan Inc.); biotin (biotinylated); purchased Accelegan Inc
Procedure: as §1

KRas G12R = KRas G12R (Homo sapiens, UniProt P01116, G12R); test: biochemical;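 note: TR-FRET displacement assay of compound binding to KRas, read after one hour at room temperature, potency from a four-parameter fit of percent-of-control values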
Procedure: as §1

KRas Q61H = molecular target: T2, KRas Q61H (Homo sapiens, UniProt P01116, Q61H); test: KRas binding assay (TR-FRET displacement);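 note: TR-FRET signal read after one hour at room temperature, IC50 derived by four-parameter fitting of percent-of-control values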
T2 construct: Biotinylated KRas (corresponding to amino acids 1-169, produced at Accelegan Inc.); biotin (biotinylated); purchased Accelegan Inc
Procedure: as §1

KRas G12V = KRas G12V (Homo sapiens, UniProt P01116, G12V); test: biochemical;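 note: KRas binding measured by TR-FRET displacement at room temperature, IC50 fitted from percent of control values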
Procedure: as §1

KRas G12A = KRas G12A (Homo sapiens, UniProt P01116, G12A); test: biochemical;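 note: binding to KRas measured by TR-FRET displacement after one hour at room temperature, IC50 from a four-parameter fit of percent-of-control values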
Procedure: as §1

KRas WT = KRas WT (Homo sapiens, UniProt P01116); test: biochemical;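 note: binding to KRas read as TR-FRET displacement after a one-hour room-temperature incubation, IC50 derived from percent-of-control values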
KRas WT, sequence (P01116 1-169 isoform P01116-2): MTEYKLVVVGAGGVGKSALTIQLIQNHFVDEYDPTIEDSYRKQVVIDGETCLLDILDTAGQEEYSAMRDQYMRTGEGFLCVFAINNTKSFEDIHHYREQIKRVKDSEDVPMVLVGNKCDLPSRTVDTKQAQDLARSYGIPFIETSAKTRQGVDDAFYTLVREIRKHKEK
Procedure: as §1

KRas G12A, sequence (P01116 1-169 isoform P01116-2 G12A): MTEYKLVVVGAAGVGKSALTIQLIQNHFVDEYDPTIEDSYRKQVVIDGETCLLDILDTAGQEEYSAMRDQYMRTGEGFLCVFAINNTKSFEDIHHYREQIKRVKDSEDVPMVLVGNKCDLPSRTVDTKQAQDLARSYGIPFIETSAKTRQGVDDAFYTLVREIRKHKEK
T1 sequence (P01116 1-169 isoform P01116-2 G13D): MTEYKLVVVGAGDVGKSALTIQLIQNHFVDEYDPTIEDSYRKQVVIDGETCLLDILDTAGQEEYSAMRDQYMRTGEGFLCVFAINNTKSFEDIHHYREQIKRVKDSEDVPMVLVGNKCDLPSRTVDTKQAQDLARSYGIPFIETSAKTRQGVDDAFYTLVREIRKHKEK
T2 sequence (P01116 1-169 isoform P01116-2 Q61H): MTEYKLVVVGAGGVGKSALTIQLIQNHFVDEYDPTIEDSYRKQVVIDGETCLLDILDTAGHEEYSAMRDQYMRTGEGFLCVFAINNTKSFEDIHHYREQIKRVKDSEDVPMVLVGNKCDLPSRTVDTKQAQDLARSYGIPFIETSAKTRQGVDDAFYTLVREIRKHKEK
KRas G12S, sequence (P01116 1-169 isoform P01116-2 G12S): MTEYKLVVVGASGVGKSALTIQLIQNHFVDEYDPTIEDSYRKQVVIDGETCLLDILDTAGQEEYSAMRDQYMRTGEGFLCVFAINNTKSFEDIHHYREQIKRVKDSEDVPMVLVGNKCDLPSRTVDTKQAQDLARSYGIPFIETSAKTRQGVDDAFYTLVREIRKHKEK
KRas G12R, sequence (P01116 1-169 isoform P01116-2 G12R): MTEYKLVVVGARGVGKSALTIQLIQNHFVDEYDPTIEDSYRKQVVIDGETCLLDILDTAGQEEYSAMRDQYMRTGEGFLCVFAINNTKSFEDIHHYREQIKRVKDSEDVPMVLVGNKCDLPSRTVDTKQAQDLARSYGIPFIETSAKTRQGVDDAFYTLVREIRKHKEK
KRas G12D, sequence (P01116 1-169 isoform P01116-2 G12D): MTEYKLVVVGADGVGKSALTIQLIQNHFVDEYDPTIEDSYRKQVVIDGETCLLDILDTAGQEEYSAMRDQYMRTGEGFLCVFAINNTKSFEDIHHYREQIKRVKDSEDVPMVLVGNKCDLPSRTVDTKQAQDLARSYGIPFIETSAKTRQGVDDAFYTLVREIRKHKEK
KRas G12V, sequence (P01116 1-169 isoform P01116-2 G12V): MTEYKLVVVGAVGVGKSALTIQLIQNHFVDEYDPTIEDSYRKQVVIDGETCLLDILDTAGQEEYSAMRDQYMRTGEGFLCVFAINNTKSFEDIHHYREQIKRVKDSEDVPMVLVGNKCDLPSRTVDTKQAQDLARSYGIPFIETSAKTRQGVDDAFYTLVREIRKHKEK
KRas G12C, sequence (P01116 1-169 isoform P01116-2 G12C): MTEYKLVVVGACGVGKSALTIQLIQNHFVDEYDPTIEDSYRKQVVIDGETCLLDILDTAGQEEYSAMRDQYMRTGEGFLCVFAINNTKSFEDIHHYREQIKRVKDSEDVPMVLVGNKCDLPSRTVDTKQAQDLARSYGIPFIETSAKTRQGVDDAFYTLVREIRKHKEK

Row | IC50 (KRas G12C) [µM] | IC50 (KRas G12S) [µM] | IC50 (KRas G12D) [µM] | IC50 (KRas G13D) [nM] | IC50 (KRas G12R) [µM] | IC50 (KRas Q61H) [nM] | IC50 (KRas G12V) [µM] | IC50 (KRas G12A) [µM] | IC50 (KRas WT) [µM] | Compound
1 | 7.59 | 8.92 | 9.56 | 8290 | 9.74 | 6380 | 7.61 | 5.34 | 4.36 | CNS(=O)(=O)C1CCCN(c2nc(OCC34CCCN3CCC4)nc3c(F)c(-c4cccc5cccc(F)c45)ncc23)C1 (stereo not drawn) [Example 237, 1-(8-fluoro-7-(8-fluoronaphthalen-1-yl)-2-((hexahydro-1H-pyrrolizin-7a-yl)methoxy)pyrido[4,3-d]pyrimidin-4-yl)-N-methylpiperidine-3-sulfonamide]
2 | 8.98 | 26.9 | ≥ 100 | 70100 | 31.2 | 52900 | 18.2 | 17.8 | 35.9 | Fc1c(-c2cccc3cccc(F)c23)ncc2c(NCc3cnn4c3OCCC4)nc(OCC34CCCN3CCC4)nc12 [Example 222, N-((6,7-dihydro-5H-pyrazolo[5,1-b][1,3]oxazin-3-yl)methyl)-8-fluoro-7-(8-fluoronaphthalen-1-yl)-2-((tetrahydro-1H-pyrrolizin-7a(5H)-yl)methoxy)pyrido[4,3-d]pyrimidin-4-amine]
3 | 6.96 | 6.23 | 8.03 | 7860 | 13 | 13600 | 7.63 | 8.19 | 11 | O=CNC1CCCN(c2nc(OCC34CCCN3CCC4)nc3c(F)c(-c4cccc5cccc(F)c45)ncc23)C1 (stereo not drawn) [Example 242, N-(1-(8-fluoro-7-(8-fluoronaphthalen-1-yl)-2-((hexahydro-1H-pyrrolizin-7a-yl)methoxy)pyrido[4,3-d]pyrimidin-4-yl)piperidin-3-yl)formamide]
4 | 0.979 | 0.742 | 7.86 | 1280 | 0.424 | 808 | 1.29 | 0.981 | 1.06 | NS(=O)(=O)CC1CN(c2nc(OCC34CCCN3CCC4)nc3c(F)c(-c4cccc5cccc(F)c45)ncc23)CCO1 (stereo not drawn) [Example 249, 1-(4-(8-fluoro-7-(8-fluoronaphthalen-1-yl)-2-((tetrahydro-1H-pyrrolizin-7a(5H)-yl)methoxy)pyrido[4,3-d]pyrimidin-4-yl)morpholin-2-yl)methanesulfonamide]
5 | 2.68 | 2.15 | 0.429 | 1180 | 2.56 | 2060 | 1.83 | 2.11 | 1.59 | O=S1(=O)NCCC2(CCCN(c3nc(OCC45CCCN4CCC5)nc4c(F)c(-c5cccc6cccc(F)c56)ncc34)C2)N1 (stereo not drawn) [Example 247, 8-(8-fluoro-7-(8-fluoronaphthalen-1-yl)-2-((hexahydro-1H-pyrrolizin-7a-yl)methoxy)pyrido[4,3-d]pyrimidin-4-yl)-2-thia-1,3,8-triazaspiro[5.5]undecane 2,2-dioxide]

More lines, now with the values behind:

Row | Compound | IC50 (KRas G12C) [µM] | IC50 (KRas G12S) [µM] | IC50 (KRas G12D) [µM] | IC50 (KRas G13D) [nM] | IC50 (KRas G12R) [µM] | IC50 (KRas Q61H) [nM] | IC50 (KRas G12V) [µM] | IC50 (KRas G12A) [µM] | IC50 (KRas WT) [µM]
6 | N#Cc1ccccc1N1CCN(c2nc(OCC34CCCN3CCC4)nc3c(F)c(-c4cccc5cccc(F)c45)ncc23)CC1 [Example 216, 2-(4-(8-fluoro-7-(8-fluoronaphthalen-1-yl)-2-((tetrahydro-1H-pyrrolizin-7a(5H)-yl)methoxy)pyrido[4,3-d]pyrimidin-4-yl)piperazin-1-yl)benzonitrile] | 6.3 | 41 | ≥ 100 | 59000 | 2.57 | 83200 | 17.9 | 13.8 | 30.9
7 | Fc1c(-c2cccc3cccc(F)c23)ncc2c(N3CCCC(c4nc[nH]n4)C3)nc(OCC34CCCN3CCC4)nc12 (stereo not drawn) [Example 30, 4-(3-(1H-1,2,4-triazol-3-yl)piperidin-1-yl)-8-fluoro-7-(8-fluoronaphthalen-1-yl)-2-((hexahydro-1H-pyrrolizin-7a-yl)methoxy)pyrido[4,3-d]pyrimidine] | 1.29 | 1.45 | 0.209 | 2000 | 1.27 | 2900 | 0.8 | 1.76 | 1.74
8 | NC(=O)N1CC(Nc2nc(OCC34CCCN3CCC4)nc3c(F)c(-c4cccc5cccc(Cl)c45)ncc23)C1 [Example 107, 3-((7-(8-chloronaphthalen-1-yl)-8-fluoro-2-((tetrahydro-1H-pyrrolizin-7a(5H)-yl)methoxy)pyrido[4,3-d]pyrimidin-4-yl)amino)azetidine-1-carboxamide] | 3.52 | 6.85 | 10.8 | 8790 | 4.62 | 8780 | 3.41 | 6.52 | 8.53
9 | Fc1c(-c2cccc3cccc(Cl)c23)ncc2c(N3CC(n4ccnc4)C3)nc(OCC34CCCN3CCC4)nc12 [Example 101, 4-(3-(1H-imidazol-1-yl)azetidin-1-yl)-7-(8-chloronaphthalen-1-yl)-8-fluoro-2-((tetrahydro-1H-pyrrolizin-7a(5H)-yl)methoxy)pyrido[4,3-d]pyrimidine] | 0.679 | 1.34 | 15.3 | 4230 | 0.615 | 2580 | 0.966 | 0.994 | 3.03
10 | Fc1c(-c2cccc3cccc(F)c23)ncc2c(N3CCCCC3)nc(OCC34CCCN3CCC4)nc12 [Example 21, 8-fluoro-7-(8-fluoronaphthalen-1-yl)-2-((hexahydro-1H-pyrrolizin-7a-yl)methoxy)-4-(piperidin-1-yl)pyrido[4,3-d]pyrimidine] | 12.7 | 18.8 | 14.8 | 12600 | 10.7 | 19400 | 9.73 | 12.6 | 11.4
11 | Nc1cc2n(n1)CCN(c1nc(OCC34CCCN3CCC4)nc3c(F)c(-c4cccc5cccc(F)c45)ncc13)C2 [Example 126, 5-(8-fluoro-7-(8-fluoronaphthalen-1-yl)-2-((tetrahydro-1H-pyrrolizin-7a(5H)-yl)methoxy)pyrido[4,3-d]pyrimidin-4-yl)-4,5,6,7-tetrahydropyrazolo[1,5-a]pyrazin-2-amine] | 9.29 | 3.97 | 67.3 | 7290 | 18.4 | 7500 | ≥ 100 | 13.8 | 5.97
12 | Fc1c(-c2cccc3cccc(F)c23)ncc2c(NCc3cn[nH]c3)nc(OCC34CCCN3CCC4)nc12 [Example 93, N-((1H-pyrazol-4-yl)methyl)-8-fluoro-7-(8-fluoronaphthalen-1-yl)-2-((hexahydro-1H-pyrrolizin-7a-yl)methoxy)pyrido[4,3-d]pyrimidin-4-amine] | 4.05 | 10.2 | 83.6 | 20400 | 3.39 | 21800 | 2.93 | 7.84 | 14.9
